Patent US12297293B2, “Peptide compounds targeting PD-1 receptor as well as preparation and applications thereof” (NANTONG UNIVERSITY, priority 2021, dated 2025)
Ends that are not written are not given here.

What was measured:
DRG neurons = assay: DRG neuronal calcium imaging experiment; type: cell-based, ICR mice; settings: DRG neurons pretreated with 1 nM; high K+ solution; Fluo-4/AM, laser confocal
Text: The inhibitory effect of compounds 1-5 on pain signaling was characterized by DRG neuronal calcium imaging, comprising the following steps:
performing acute isolation on 3-week-old female ICR mice, and extracting DRG in a sterile bench; lysing sequentially by collagenase A and trypsin; terminating trypsin lysis with a complete medium containing serum; centrifuging at 800r, discarding supernatant, and adding Neurobasal medium (containing 2% B27, Clutanine 1%, and 1% penicillin-streptomycin double antibody solution) and thoroughly mixing; then culturing in pre-prepared Petri dishes lined with PDL for 48 h; labeling DRG neurons with Flou-4/AM prior to the experiment, and pre-treating with different doses of the compounds 1-5/equivalent volume of HBSS before stimulating the DRG neurons with high K+ solution; and then detecting changes of intracellular free calcium ion concentration of DRG neurons under laser confocal.

[1] = tested on: formalin-induced inflammatory pain; assay: Formalin-induced inflammatory pain test; type: in vivo, ICR male mice
Procedure: According to the present invention, placing ICR male mice in a weight range of 25-30 g in an observation room for 15 min, and injecting intrathecally with different doses of the compound 4 (5 nmol, 10 nmol, 30 nmol) or saline; after 5 min, injecting subcutaneously with 5% formalin (20 μl) through the plantar surface of the foot, and then immediately sending to the observation room; counting an accumulated time of pain behaviors (licking, biting, and flinging the injected foot) during the time period of 0-10 min and 10-45 min, respectively.
0-10 min after formalin injection is a phase I, which is mainly triggered by direct activation of injurious neurons; and 10-35 min is phase II, which is mainly triggered by formalin-induced inflammatory response.

[2] = tested on: acetic acid-induced visceral pain; assay: Acetic acid-induced visceral pain (writhing) test; type: in vivo, ICR male mice
Procedure: According to the present invention, placing ICR male mice in a weight range of 25-30 g in an observation room for 15 min, and injecting intrathecally with different doses of the compound 4 (5 nmol, 10 nmol, 30 nmol) or saline; after 5 min, injecting intraperitoneally with 0.6% glacial acetic acid solution (10 mL/kg), and then sending to the observation room; counting the number of body writhing within 20 min.
The experimental results are shown in FIG. 4, the number of writhing in mice decreased with the increase of the administered dose. […] Intrathecally injected at a dose of 30 nmol, the compound 4 inhibited the writhing behavior of mice by 63%.

SYGGADYKR [compound 4]
inhibitory effect on the increase of intracellular Ca2+ concentration induced by high K+ (DRG neurons): significant inhibitory effect | pain behavior (licking, biting and flinging the injected foot) in both phases ([1]; intrathecal 5, 10, 30 nmol, 5% formalin 20 μl plantar, phase I and phase II, vs control group): significantly shortened | ED50 (median effective dose) for pain in phase II ([1]; intrathecal injection, formalin phase II): 6.28 (5.34-7.39) nmol | number of abdominal writhing ([2]; intrathecal 5, 10, 30 nmol, 0.6% acetic acid i.p. 10 mL/kg, writhing within 20 min): significantly reduce the number of abdominal writhing in mice in a dose-dependent manner | inhibition of writhing behavior ([2]; intrathecal dose of 30 nmol): 63% | ED50 ([2]; intrathecal injection, acetic acid writhing): 13.5 (11.88-15.34) nmol
